Results taken from US12551482B2, “Aurora kinase inhibitors” (The Regents of the University of California, priority 2013, dated 2026).
Read-outs that look alike come from different tables or passages of the source.

How the values were obtained:
COLO-829 = assay: Cancer cell line profiling, Genomics of Drug Sensitivity Project; conditions: Homo sapiens, COLO-829, read-out: CD532 EC50 (uM)
CL-11 = assay: as above; conditions: CL-11, read-out: CD532 EC50 (uM)
SK-MEL-3 = assay: as above; conditions: Homo sapiens, SK-MEL3, read-out: CD532 EC50 (uM)
MEWO = assay: as above; conditions: Homo sapiens, read-out: CD532 EC50 (uM)
COLO-800 = assay: as above; conditions: Homo sapiens, COLO-800, read-out: CD532 EC50 (uM)
Hep 3B2.1-7 = assay: as above; conditions: read-out: CD532 EC50 (uM)
SK-MEL-1 = assay: as above; conditions: Homo sapiens, SK-MEL-1, read-out: CD532 EC50 (uM)
RF-48 = assay: as above; conditions: RF48, read-out: CD532 EC50 (uM)
HGC-27 = assay: as above; conditions: Homo sapiens, HGC-27, read-out: CD532 EC50 (uM)
MZ2-MEL. = assay: as above; conditions: read-out: CD532 EC50 (uM)
WM793B = assay: as above; conditions: read-out: CD532 EC50 (uM)
Aurora A protein = target: T1, Aurora A protein (Homo sapiens, UniProt O14965); assay: Dose response immunoblot for Aurora A protein in MYCN-amplified neuroblastoma cell lines; format: cell-based; conditions: across cell lines (FIGS. 1D and 7)
T1 construct: endogenous in cells; host or cells: SK-N-BE(2), SMS-KCN, Kelly neuroblastoma cells
T1 sequence (O14965 whole entry): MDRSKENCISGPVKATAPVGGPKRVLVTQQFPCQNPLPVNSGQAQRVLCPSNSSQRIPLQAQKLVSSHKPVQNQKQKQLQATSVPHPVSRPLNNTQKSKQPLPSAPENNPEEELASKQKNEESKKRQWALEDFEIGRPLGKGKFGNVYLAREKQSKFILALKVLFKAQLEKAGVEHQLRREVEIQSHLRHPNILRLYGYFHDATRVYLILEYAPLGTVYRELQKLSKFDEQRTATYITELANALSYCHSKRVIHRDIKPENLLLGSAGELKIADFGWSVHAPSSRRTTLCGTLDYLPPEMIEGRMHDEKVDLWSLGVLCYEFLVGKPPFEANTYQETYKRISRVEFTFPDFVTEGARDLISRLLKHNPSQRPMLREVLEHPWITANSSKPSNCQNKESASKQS
Experimental: Neuroblastoma tumor cell lines were obtained from the University of California San Francisco Cell Culture Facility (Kelly, SK-N-BE2, and SH-EP). SMS-KCN, SHEP MYCN^wt and MYCN^T58A/S62A cells were obtained. All cells were grown in RPMI with 10% FBS. Neuroblastoma cells were harvested and lysed with Cell Signaling Lysis buffer+1% SDS, sonicated and supernatants boiled in LDS sample buffer (Invitrogen). […] Western blot quantitation performed with ImageJ software.

IMR-5 = assay: Cancer cell line profiling, Genomics of Drug Sensitivity Project; conditions: Homo sapiens, IMR-5, read-out: CD532 EC50 (uM)
huH-1 = assay: as above; conditions: Homo sapiens, HuH-1, read-out: CD532 EC50 (uM)
JHH-2 = assay: as above; conditions: JHH-2, read-out: CD532 EC50 (uM)
LB2518-MEL = assay: as above
JHH-7 = assay: as above; conditions: JHH7, read-out: CD532 EC50 (uM)
GAK = assay: as above; conditions: read-out: CD532 EC50 (uM)
[1] = tested on: MYCN amplified neuroblastoma cells; assay: Cell cycle by flow cytometry; format: cell-based; conditions: 4 or 6 hrs of treatment
Experimental: Neuroblastoma cells were treated for the indicated time, trypsinized, washed, stained with Dylight 800 at 0.3 μg/mL (Pierce, 46421), fixed with 1.5% PFA, and permeabilized with 100% methanol. Cells were then stained with antibodies against p-MPM2 (Millipore, 16-155), p-pan-Aurora (Cell Signaling, 2914), MYCN (Thermo, PA5-17403), rabbit IgG (Invitrogen, A10542), or mouse IgG (BioLegend, 405307). Cells were stained with DAPI at 0.3 μg/mL (Invitrogen, D21490) and analyzed on the BD LSR II flow cytometer. For cell cycle analysis, cells were stimulated with EdU for 2 hours prior to harvest, then probed using the Click-iT EdU Flow Cytometry Assay Kit (Invitrogen, C10424). Cells were stained with propidium iodide (BD, 556547) and analyzed on the BD FACSCalibur flow cytometer. Data was gated using Cytobank. For viability studies, neuroblastoma cells were plated in 96-well plates at a density of 1,000 cells/well for SHEP or 4,000 cells/well for Kelly or SK—N-BE2 cells, then incubated with indicated concentrations of drug for 72 hours at 37° C. Plates were frozen at −80° C. to induce cell lysis. CyQUANT reagent mixture (Invitrogen, C7026) was added to thawed plates, then fluorescence was measured. Alternatively, resazurin (Sigma-Aldrich, R7017) was added directly to wells following drug treatment then incubated for 4 hours at 37° C. prior to measuring fluorescence. Data was analyzed using GraphPad Prism software.

HSC-4 = assay: Cancer cell line profiling, Genomics of Drug Sensitivity Project; conditions: Homo sapiens, HSC-4, read-out: CD532 EC50 (uM)
JHH-4 = assay: as above; conditions: JHH-4, read-out: CD532 EC50 (uM)
LB996-RCC = assay: as above; conditions: read-out: CD532 EC50 (uM)
NB13 = assay: as above; conditions: read-out: CD532 EC50 (uM)
MEL-HO = assay: as above; conditions: read-out: CD532 EC50 (uM)
SNU-81 = assay: as above; conditions: read-out: CD532 EC50 (uM)
M-14 = assay: as above; conditions: Homo sapiens, M14, read-out: CD532 EC50 (uM)

Q: What does the source list for `O=C(Nc1ccc(Nc2nccc(Nc3cc(C4CCCC4)[nH]n3)n2)cc1)Nc1cccc(C(F)(F)F)c1` [CD532, 1-(4-((4-((5-cyclopentyl-1H-pyrazol-3-yl)amino)pyrimidin-2-yl)amino)phenyl)-3-(3-(trifluoromethyl)phenyl)urea]?
A: EC50 (COLO-829): 0.796 µM; EC50 (CL-11): 4.93 µM; EC50 (SK-MEL-3): 0.567 µM; EC50 (MEWO): 1.46 µM; EC50 (COLO-800): 0.302 µM; EC50 (Hep 3B2.1-7): 0.877 µM; EC50 (SK-MEL-1): 0.649 µM; EC50 (RF-48): 0.903 µM; EC50 (HGC-27): 0.83 µM; EC50 (MZ2-MEL.): 0.434 µM; EC50 (WM793B): 0.705 µM; Aurora A protein level (Aurora A protein): downregulated Aurora A protein across cell lines (at higher concentrations); EC50 (IMR-5): 0.0071 µM; EC50 (huH-1): 1.38 µM; EC50 (JHH-2): 0.543 µM; EC50 (LB2518-MEL; read-out: CD532 EC50 (uM), LB2518-MEL cell line, Skin): 0.847 µM; EC50 (LB2518-MEL; read-out: CD532 EC50, LB2518-MEL cell line, Skin): 0.709 µM; EC50 (JHH-7): 0.766 µM; EC50 (GAK): 0.823 µM; cell cycle effect [1]: potent loss of S-phase entry; EC50 (HSC-4): 0.885 µM; EC50 (JHH-4): 1.35 µM; EC50 (LB996-RCC): 2.08 µM; EC50 (NB13): 1.02 µM; EC50 (MEL-HO): 0.411 µM; EC50 (SNU-81): 0.421 µM; EC50 (M-14): 0.972 µM
